# Assay results taken from patent publication US20140323476A1, “PEPTIDE DEFORMYLASE INHIBITORS” (priority 2011, published 2014).
# Tests used:
# [1] = Dissolution rate in water, turbidity and visual inspection; format: physicochemical
# Description: [(2R)-2-(cyclopentyl methyl)-3-(2-{5-fluoro-6-[(9aS)-hexahydropyrazino[2,1-c][1,4]oxazin-8(1h)-yl]-2-methyl-4-pyrimidinyl}hydrazino)-3-oxopropyl]hydroxyformamide was triturated with a mortar and pestle. The resulting powder (20 g, 1.0 eq, basis) was charged to a 250 mL jacketed vessel. The vessel was equipped with an overhead stirrer which was set to 60 RPM. The jacket fluid was controlled to 23° C. A solution of purified water (125 mL) and methanesulphonic acid (4.0 g, 2.7 mL, 1.0 eq) was prepared. The aqueous methanesulphonic acid solution was added to the vessel containing [(2R)-2-(cyclopentyl methyl)-3-(2-{5-fluoro-6-[(9aS)-hexahydropyrazino[2,1-c][1,4]oxazin-8(1h)-yl]-2-methyl-4-pyrimidinyl}hydrazino)-3-oxopropyl]hydroxyformamide. The resulting suspension was stirred continuously and monitored by turbidity and visual inspection. After 1 day, the turbidity and pH readings stabilized.
# [(2R)-2-(cyclopentyl methyl)-3-(2-{5-fluoro-6-[(9aS)-hexahydropyrazino[2,1-c][1,4]oxazin-8(1h)-yl]-2-methyl-4-pyrimidinyl}hydrazino)-3-oxopropyl]hydroxyformamide methanesulphonate was triturated with a mortar and pestle. The resulting powder (24 g, 1.0 eq) was charged to a similar 250 mL jacketed vessel. The vessel was equipped with an overhead stirrer which was set to 60 RPM. The jacket fluid was controlled to 23° C. Purified water (125 mL) was added to the vessel containing [(2R)-2-(cyclopentylmethyl)-3-(2-{5-fluoro-6-[(9aS)-hexahydropyrazino[2,1-c][1,4]oxazin-8(1h)-yl]-2-methyl-4-pyrimidinyl}hydrazino)-3-oxopropyl]hydroxyformamide methanesulphonate. The resulting suspension was stirred continuously and monitored by turbidity and visual inspection. A clear solution was observed visually and confirmed turbidimetrically at 3 minutes.
# [2] = Hydrolytic degradation rate of reconstituted lyophile; format: physicochemical; conditions: reconstituted lyophile at 5 mg/mL
# [3] = Degradation rate on storage at forced conditions; format: physicochemical; conditions: forced conditions: 50° C., ambient humidity
# pH solubility curve = format: physicochemical; conditions: thermodynamic from solid
# Source text: The pH solubility curve can be seen in Table 5 below.
# [4] = Adsorption of labile water versus relative humidity; format: physicochemical
# Enterococcus faecalis 7 = experiment: Antimicrobial activity assay (MIC); format: cell-based; conditions: median of all results obtained, panel run 6 times
# Description: (§1) Whole-cell antimicrobial activity was determined by broth microdilution using the Clinical and Laboratory Standards Institute (CLSI, formerly NCCLS) recommended methodology (NCCLS Document M7-A6, “Methods for Dilution Susceptibility Tests for Bacteria that Grow Aerobically—Approved Standard Sixth Edition”, 2003). Compounds were tested in serial two-fold dilutions ranging from 64 to 0.06 μg/mL. A panel of 12 strains was evaluated in the assay. This panel consisted of the following laboratory strains: Staphylococcus aureus Oxford, Staphylococcus aureus WCUH29, Enterococcus faecalis I, Enterococcus faecalis 7, Haemophilus influenzae Q1, Haemophilus influenzae NEMC1, Moraxella catarrhalis 1502, Streptococcus pneumoniae 1629, Streptococcus pneumoniae N1387, Streptococcus pneumoniae Ery2, Escherichia coli 7623 (AcrABEFD+) and Escherichia coli 120 (AcrAB−). The minimum inhibitory concentration (MIC) was determined as the lowest concentration of compound that inhibited visible growth. A mirror reader was used to assist in determining the MIC endpoint.
# [5] = system: Haemophilus influenzae NEMC1; experiment: Antimicrobial activity assay (MIC); format: cell-based; conditions: median of all results obtained, panel run 6 times
# Description: as §1
# [6] = system: Escherichia coli 120 (AcrAB−); experiment: Antimicrobial activity assay (MIC); format: cell-based
# Description: as §1
# [7] = system: Staphylococcus aureus WCUH29; experiment: Antimicrobial activity assay (MIC); format: cell-based; conditions: median of all results obtained, panel run 6 times
# Description: as §1
# [8] = system: Streptococcus pneumoniae N1387; experiment: Antimicrobial activity assay (MIC); format: cell-based; conditions: median of all results obtained, panel run 6 times
# Description: as §1
# [9] = system: Escherichia coli 7623 (AcrABEFD+); experiment: Antimicrobial activity assay (MIC); format: cell-based; conditions: median of all results obtained, panel run 6 times
# Description: as §1
# [10] = system: Haemophilus influenzae Q1; experiment: Antimicrobial activity assay (MIC); format: cell-based; conditions: median of all results obtained, panel run 6 times
# Description: as §1
# [11] = system: Staphylococcus aureus Oxford; experiment: Antimicrobial activity assay (MIC); format: cell-based; conditions: median of all results obtained, panel run 6 times
# Description: as §1
# [12] = system: Moraxella catarrhalis 1502; experiment: Antimicrobial activity assay (MIC); format: cell-based; conditions: median of all results obtained, panel run 6 times
# Description: as §1
# [13] = system: Streptococcus pneumoniae 1629; experiment: Antimicrobial activity assay (MIC); format: cell-based; conditions: median of all results obtained, panel run 6 times
# Description: as §1
# [14] = system: Streptococcus pneumoniae Ery2; experiment: Antimicrobial activity assay (MIC); format: cell-based; conditions: median of all results obtained, panel run 6 times
# Description: as §1
# Enterococcus faecalis I = experiment: Antimicrobial activity assay (MIC); format: cell-based; conditions: median of all results obtained, panel run 6 times
# Description: as §1
# panel of 12 strains = experiment: Antimicrobial activity assay, broth microdilution, panel of 12 strains; format: cell-based; conditions: compared with the examples from WO 03/101442
# Description: as §1
structure (smiles),measurement,setting,value
"Cc1nc(NNC(=O)[C@H](CC2CCCC2)CN(O)C=O)c(F)c(N2CCN3CCOC[C@@H]3C2)n1 [Example 1, [(2R)-2-(Cyclopentylmethyl)-3-(2-{5-fluoro-6-[(9aS)-hexahydropyrazino[2,1-c][1,4]oxazin-8(1H)-yl]-2-methyl-4-pyrimidinyl}hydrazino)-3-oxopropyl]hydroxyformamide]",time observed without complete dissolution,"[1]; 20 g powder, 125 mL purified water with 1.0 eq methanesulphonic acid, 23° C., 60 RPM",over 7.1 days
same,Degradation Rate % hydrolized/day,"[2]; storage temperature 5° C., listed as Free base",0.06 % hydrolized/day
same,Degradation Rate % hydrolized/day,"[2]; storage temperature 25° C., listed as Free base",0.53 % hydrolized/day
same,degradation rate,[3]; listed as free base,1.7 %/month
same,solubility,"pH solubility curve; 0.003M methanesulphonic acid, pH 4.86, aqueous buffer",1.93 mg/mL
same,solubility,"pH solubility curve; 0.01M methanesulphonic acid, pH 4.33, aqueous buffer",4.98 mg/mL
same,solubility,"pH solubility curve; 0.03M methanesulphonic acid, pH 3.98, aqueous buffer",13.9 mg/mL
same,solubility,"pH solubility curve; 0.05M methanesulphonic acid, pH 3.76, aqueous buffer",22 mg/mL
same,solubility,"pH solubility curve; 0.1M methanesulphonic acid, pH 3.57, aqueous buffer",41.7 mg/mL
same,solubility,"pH solubility curve; 0.3M methanesulphonic acid, pH 3.34, aqueous buffer",116 mg/mL
same,solubility,"pH solubility curve; 0.5M methanesulphonic acid, pH 3.39, aqueous buffer",193 mg/mL
same,solubility,"pH solubility curve; 1M methanesulphonic acid, pH 3.42, aqueous buffer",347 mg/mL
Cc1nc(NNC(=O)[C@H](CC2CCCC2)CN(O)C=O)c(F)c(N2CCN3CCOC[C@@H]3C2)n1 [Example 6],time to clear solution,"[1]; 24 g powder, 125 mL purified water, 23° C., 60 RPM",3 min
same,dissolution and solubility compared to the free base,"[1]; one equivalent of methanesulphonic acid and water, 160 mg/mL",faster dissolution and enhanced solubility
same,Degradation Rate % hydrolized/day,"[2]; storage temperature 5° C., listed as Mesylate",0.01 % hydrolized/day
same,Degradation Rate % hydrolized/day,"[2]; storage temperature 25° C., listed as Mesylate",0.11 % hydrolized/day
same,relative humidity at which it deliquesces,[4],70 % relative humidity
same,labile water adsorbed reversibly,[4]; up to 70% relative humidity,up to 0.4 % (wt/wt)
same,degradation rate,[3]; listed as mesylate,0.2 %/month
same,solubility,"pH solubility curve; Purified Water, pH 3.2, equilibrium not reached",> 452 mg/mL
"CS(=O)(=O)O.Cc1nc(NNC(=O)[C@H](CC2CCCC2)CN(O)C=O)c(F)c(N2CCN3CCOC[C@@H]3C2)n1 [Example 11, [(2R)-2-(Cyclopentylmethyl)-3-(2-{5-fluoro-6-[(9aS)-hexahydropyrazino[2,1-c][1,4]oxazin-8(1H)-yl]-2-methyl-4-pyrimidinyl}hydrazino)-3-oxopropyl]hydroxyl formamide methanesulfonate polymorphic Form 2]",labile water adsorbed reversibly,[4]; up to 95% relative humidity,up to 2 % (wt/wt)
"Cc1nc(NNC(=O)[C@H](CC2CCCC2)CN(O)C=O)c(F)c(N2CCN3CCOC[C@@H]3C2)n1 [Example 24, [(2R)-2-(Cyclopentylmethyl)-3-(2-{5-fluoro-6-[(9aS)-hexahydropyrazino[2,1-c][1,4]oxazin-8(1H)-yl]-2-methyl-4-pyrimidinyl}hydrazino)-3-oxopropyl]hydroxyformamide]",MIC,Enterococcus faecalis 7,32 µg/mL
same,MIC,[5],1 µg/mL
same,MIC,[6],0.188 µg/mL
same,MIC,[7],0.375 µg/mL
same,MIC,[8],0.5 µg/mL
same,MIC,[9],16 µg/mL
same,MIC,[10],0.5 µg/mL
same,MIC,[11],2 µg/mL
same,MIC,[12],0.375 µg/mL
same,MIC,[13],0.75 µg/mL
same,MIC,[14],0.375 µg/mL
same,MIC,Enterococcus faecalis I,48 µg/mL
"Cc1nc(NNC(=O)[C@H](CC2CCCC2)CN(O)C=O)c(F)c(N2CCN3CCOC[C@@H]3C2)n1 [[(2R)-2-(Cyclopentylmethyl)-3-(2-{5-fluoro-6-[(9aS)-hexahydropyrazino[2,1-c][1,4]oxazin-8(1H)-yl]-2-methyl-4-pyrimidinyl}hydrazino)-3-oxopropyl]hydroxyformamide]",in vitro antibacterial activity (MIC and/or MIC90) and/or in vivo efficacy,panel of 12 strains,greater in vitro antibacterial activity (MIC and/or MIC90) and/or better in vivo efficacy
